Laboratory results taken from patent US20250270445A1, “COMPOUNDS AND USES THEREOF IN FIELD OF OPTOELECTRONICS” (Zhejiang Brilliant Optoelectronic Technology Co.,Ltd., priority 2022, published 2025).

Key:
Type in all cases: physicochemical
[1] = UV stability of compounds in toluene (absorbance decay to 80%); conditions: 1×10^−5 mol/L in toluene, UV LEDs 365 nm & 255 nm, time to 80% absorbance, normalized to comparative compound 2 as 100%
Experimental: The compound was dissolved in the toluene with a concentration of 1×10^−5 mol/L. 3 mL solution was added to the cuvette with a lid and the lid was screwed on tightly, then the cuvette was placed in the ultraviolet-visible spectrophotometer to test the absorption spectrum, the absorbance of the maximum absorption peak was recorded as the initial value. The cuvette was placed at a distance of 12 cm from the UV LEDs (365 nm & 255 nm), irradiated for a period and tested its absorption spectrum, then continued to be irradiated after the test, and repeated until the absorbance decayed to 80% of its initial value, the time was recorded as t80.

[2] = Solubility of compounds in toluene
Experimental: The solubility of the compounds in the toluene were determined as follows: • 1. 1000 mg of toluene solution was placed in the transparent glass sample bottle. • 2. A certain mass of the compound was added into the toluene, and oscillated until completely dissolved. • 3. After the compound was completely dissolved, a certain mass of the compound was further added into the toluene, and oscillated. • 4. The above steps were repeated until the compound wasn't dissolved any more. • 5. The total mass of the compound added was recorded and the solubility was obtained by calculation.

[3] = Absorption spectrum, emission spectrum and extinction coefficient in toluene solution; conditions: for Molar extinction coefficient of the toluene solution: maximum absorption peak
Experimental: The extinction coefficients of the compounds and their absorption and emission spectrums in the solution were determined as follows: • 1. The compound with a certain amount of substance concentration in the toluene was prepared in a volumetric flask. • 2. The absorption spectrum of the solution was measured by using an ultraviolet-visible spectrophotometer (Puxi T9s) to obtain the absorption peak wavelength. • 3. The absorbance of the maximum absorption peak divided by the amount of substance concentration is the molar extinction coefficient of the compound. • 4. The emission spectrum of the solution was measured by using a fluorescent spectroscope (Hitachi, F-4700 FL Spectrophotometer) to obtain the emission peak wavelength.

[4] = Absorption and emission spectrum in spin-coated film; conditions: for Absorption peak of the film / Emission peak of the film: spin-coated film
Experimental: The absorption and emission spectrums of the compounds in the film were determined as follows: • 1. The compound with a certain concentration in the toluene was prepared. • 2. The prepared toluene solution was dropped onto a clean glass substrate. • 3. Spin-coating, and then heating at the 80° C. for 1 min. • 4. The absorption spectrum of the film was measured by using an ultraviolet-visible spectrophotometer (Puxi T9s) to obtain the absorption peak wavelength. • 5. The emission spectrum of the film was measured by using a fluorescent spectroscope (Hitachi, F-4700 FL Spectrophotometer) to obtain the emission peak wavelength.

| Structure (SMILES) | Times t80 [1] [%] | Solubilities(/100 g, toluene) [2] [g/100 g toluene] | Absorption peak of the toluene solution [3] [nm] | Emission peak of the toluene solution [3] [nm] | Molar extinction coefficient of the toluene solution [3] | Absorption peak of the film [4] [nm] | Emission peak of the film [4] [nm] | red shift of film spectrum versus solution spectrum ([4]; film versus toluene solution) |
| --- | --- | --- | --- | --- | --- | --- | --- | --- |
| c1ccc(N(c2ccc(-c3ccc(N(c4ccccc4)c4ccc5c(c4)c4ccccc4n5-c4ccccc4)cc3)cc2)c2ccc3c(c2)c2ccccc2n3-c2ccccc2)cc1 [comparative compound 2, reference compound] | 100 |  |  |  |  |  |  |  |
| CC(C)c1ccc(-c2cc(-c3cc(C(C)(C)C)cc(C(C)(C)C)c3)ccc2N(c2cc(F)c(F)c(F)c2)c2cc(N(c3cc(F)c(F)c(F)c3)c3ccc(-c4cc(C(C)(C)C)cc(C(C)(C)C)c4)cc3-c3ccc(C(C)C)cc3)c3ccc4c(N(c5cc(F)c(F)c(F)c5)c5ccc(-c6cc(C(C)(C)C)cc(C(C)(C)C)c6)cc5-c5ccc(C(C)C)cc5)cc(N(c5cc(F)c(F)c(F)c5)c5ccc(-c6cc(C(C)(C)C)cc(C(C)(C)C)c6)cc5-c5ccc(C(C)C)cc5)c5ccc2c3c54)cc1 [compound 14] |  | >5 | 475 | 494 | 5.1 × 10^4 L · mo 1^−1 | 471 | 493 |  |
| CCCCCCCCc1ccc(-c2cc(C(C)C)ccc2N(c2cc(F)c(F)c(F)c2)c2cc(N(c3cc(F)c(F)c(F)c3)c3ccc(C(C)C)cc3-c3ccc(CCCCCCCC)cc3)c3ccc4c(N(c5cc(F)c(F)c(F)c5)c5ccc(C(C)C)cc5-c5ccc(CCCCCCCC)cc5)cc(N(c5cc(F)c(F)c(F)c5)c5ccc(C(C)C)cc5-c5ccc(CCCCCCCC)cc5)c5ccc2c3c54)cc1 [compound 13] | 410 | >15 | 473 | 494 | 5.9 × 10^4 L · mo 1^−1 | 473 | 490 |  |
| CCCCCCCCc1ccc(-c2cc(N(c3ccc(C(C)(C)C)cc3)c3ccc(C(C)(C)C)cc3)ccc2N(c2cc(F)c(F)c(F)c2)c2cc(N(c3cc(F)c(F)c(F)c3)c3ccc(N(c4ccc(C(C)(C)C)cc4)c4ccc(C(C)(C)C)cc4)cc3-c3ccc(CCCCCCCC)cc3)c3ccc4c(N(c5cc(F)c(F)c(F)c5)c5ccc(N(c6ccc(C(C)(C)C)cc6)c6ccc(C(C)(C)C)cc6)cc5-c5ccc(CCCCCCCC)cc5)cc(N(c5cc(F)c(F)c(F)c5)c5ccc(N(c6ccc(C(C)(C)C)cc6)c6ccc(C(C)(C)C)cc6)cc5-c5ccc(CCCCCCCC)cc5)c5ccc2c3c54)cc1 [compound 18] |  | >10 | 492 | 520 | 5.1 × 10^4 L · mo 1^−1 | 487 | 518 |  |
| CC1CCC(C(C)C)C(Oc2ccc(-c3cc(C(C)C)ccc3N(c3cc(F)c(F)c(F)c3)c3cc(N(c4cc(F)c(F)c(F)c4)c4ccc(C(C)C)cc4-c4ccc(OC5CC(C)CCC5C(C)C)cc4)c4ccc5c(N(c6cc(F)c(F)c(F)c6)c6ccc(C(C)C)cc6-c6ccc(OC7CC(C)CCC7C(C)C)cc6)cc(N(c6cc(F)c(F)c(F)c6)c6ccc(C(C)C)cc6-c6ccc(OC7CC(C)CCC7C(C)C)cc6)c6ccc3c4c65)cc2)C1 (stereo not drawn) [compound 15] | 440 | >10 | 476 | 493 | 6.8 × 10^4 L · mo 1^−1 | 473 | 491 |  |
| CCc1cccc(CC)c1N(c1ccc(C(C)(C)C)cc1)c1cc(N(c2ccc(C(C)(C)C)cc2)c2c(CC)cccc2CC)c2ccc3c(N(c4ccc(C(C)(C)C)cc4)c4c(CC)cccc4CC)cc(N(c4ccc(C(C)(C)C)cc4)c4c(CC)cccc4CC)c4ccc1c2c43 [compound 9] | 279 | 25.9 | 482 | 500 | 5.3 × 10^4 L · mo 1^−1 | 482 | 499 |  |
| CCCCCCC1(CCCCCC)c2ccccc2-c2ccc(-c3ccccc3-c3ccc4c5cccc6c(-c7ccccc7-c7ccc8c(c7)C(CCCCCC)(CCCCCC)c7ccccc7-8)ccc(c7cccc3c74)c65)cc21 [comparative compound 1, reference compound] |  |  | 461 | 485 | 4.3 × 10^4 L · mo 1^−1 | 464 | 543 | large red shift |
| Cc1cc2ccccc2c(C)c1N(c1ccc(C(C)(C)C)cc1)c1cc(N(c2ccc(C(C)(C)C)cc2)c2c(C)cc3ccccc3c2C)c2ccc3c(N(c4ccc(C(C)(C)C)cc4)c4c(C)cc5ccccc5c4C)cc(N(c4ccc(C(C)(C)C)cc4)c4c(C)cc5ccccc5c4C)c4ccc1c2c43 [compound 11] |  | >2 |  |  |  |  |  |  |
| CCCCCCCCc1ccc(-c2c(N(c3cc(F)c(F)c(F)c3)c3cc(N(c4cc(F)c(F)c(F)c4)c4ccc5ccccc5c4-c4ccc(CCCCCCCC)cc4)c4ccc5c(N(c6cc(F)c(F)c(F)c6)c6ccc7ccccc7c6-c6ccc(CCCCCCCC)cc6)cc(N(c6cc(F)c(F)c(F)c6)c6ccc7ccccc7c6-c6ccc(CCCCCCCC)cc6)c6ccc3c4c65)ccc3ccccc23)cc1 [compound 17] |  | >4 | 475 | 494 | 5.8 × 10^4 L · mo 1^−1 | 476 | 497 |  |
| CC(C)c1ccc(N(c2cc(F)c(F)c(F)c2)c2cc(N(c3cc(F)c(F)c(F)c3)c3ccc(C(C)C)cc3/C=C/c3ccc(C(C)(C)C)cc3)c3ccc4c(N(c5cc(F)c(F)c(F)c5)c5ccc(C(C)C)cc5/C=C/c5ccc(C(C)(C)C)cc5)cc(N(c5cc(F)c(F)c(F)c5)c5ccc(C(C)C)cc5/C=C/c5ccc(C(C)(C)C)cc5)c5ccc2c3c54)c(/C=C/c2ccc(C(C)(C)C)cc2)c1 [compound 19] |  | >5 |  |  |  |  |  |  |
| CC(C)(C)c1ccc2c(c1)c1cc(C(C)(C)C)cc3c1n2-c1cccc2c1B3c1cc3c4ccccc4c4ccccc4c3c3c4c5c6ccccc6c6ccccc6c5ccc4n-2c13 [E2] |  | >0.7 | 507 | 523 | 4.8 × 10^4 L · mo 1^−1 |  |  |  |
| CC(C)c1cccc(C(C)C)c1N(c1ccc(C(C)(C)C)cc1)c1cc(N(c2ccc(C(C)(C)C)cc2)c2c(C(C)C)cccc2C(C)C)c2ccc3c(N(c4ccc(C(C)(C)C)cc4)c4c(C(C)C)cccc4C(C)C)cc(N(c4ccc(C(C)(C)C)cc4)c4c(C(C)C)cccc4C(C)C)c4ccc1c2c43 [compound 6] |  | >20 |  |  |  |  |  |  |
| CC(C)c1cccc(C(C)C)c1N(c1cc(C(C)(C)C)cc(C(C)(C)C)c1)c1cc(N(c2cc(C(C)(C)C)cc(C(C)(C)C)c2)c2c(C(C)C)cccc2C(C)C)c2ccc3c(N(c4cc(C(C)(C)C)cc(C(C)(C)C)c4)c4c(C(C)C)cccc4C(C)C)cc(N(c4cc(C(C)(C)C)cc(C(C)(C)C)c4)c4c(C(C)C)cccc4C(C)C)c4ccc1c2c43 [compound 7] |  | >20 |  |  |  |  |  |  |
| CC(C)(C)c1ccc2c(c1)c1cc(C(C)(C)C)cc3c1n2-c1cc(-c2c(-c4ccccc4)cc(-c4ccccc4)cc2-c2ccccc2)cc2c1B3c1cc3c4ccccc4c4ccccc4c3c3c4c5c6ccccc6c6ccccc6c5ccc4n-2c13 [E3] |  | >0.7 | 512 | 530 | 6.6 × 10^4 L · mo 1^−1 |  |  |  |
| Cc1cccc(C)c1N(c1ccc(C(F)(F)F)cc1)c1cc(N(c2ccc(C(F)(F)F)cc2)c2c(C)cccc2C)c2ccc3c(N(c4ccc(C(F)(F)F)cc4)c4c(C)cccc4C)cc(N(c4ccc(C(F)(F)F)cc4)c4c(C)cccc4C)c4ccc1c2c43 [compound 12] |  | >4 |  |  |  |  |  |  |
| Cc1cc2ccccc2cc1N(c1ccc(C(C)(C)C)cc1)c1cc(N(c2ccc(C(C)(C)C)cc2)c2cc3ccccc3cc2C)c2ccc3c(N(c4ccc(C(C)(C)C)cc4)c4cc5ccccc5cc4C)cc(N(c4ccc(C(C)(C)C)cc4)c4cc5ccccc5cc4C)c4ccc1c2c43 [compound 10] |  | >2.5 |  |  |  |  |  |  |
